In US9221822B2, “Thiazolopyrimidine modulators as immunosuppressive agents” (Katholieke Universiteit Leuven, K.U.Leuven R&D, priority 2009, dated 2015):

Tested on: Human peripheral blood mononuclear cells (PBMCs) as Responder cells, RPMI 1788 Stimulator cells
Test: Mixed Lymphocyte Reaction (MLR) test
Format: cell-based
Settings: Homo sapiens, RPMI-1788, lowest concentration giving 50% inhibition of the MLR; 6 days coculture, 3H-thymidine incorporation
Method: Human peripheral blood mononuclear cells (PBMCs) were isolated from buffy coats, obtained from healthy blood donors by Ficoll (Lymphoprep, Axis-Shield PoC AS, Oslo, Norway) density-gradient centrifugation. The cells at the Ficoll-plasma interface were washed three times and used as “Responder” cells. RPMI 1788 (ATCC, N^o CCL-156) cells were treated with mitomycin C (Kyowa, Nycomed, Brussel, Belgium) and used as “Stimulator” cells. Responder cells (0.12×10^6), Stimulator cells (0.045×10^6) and compounds (in different concentrations) were cocultured for 6 days in RPMI 1640 medium (BioWhittaker, Lonza, Belgium) supplemented with 10% fetal calf serum, 100 U/ml Geneticin (Gibco, LifeTechnologies, UK). Cells were cultured in triplicate in flat-bottomed 96-well microtiter tissue culture plates (TTP, Switzerland). After 5 days, cells were pulsed with 1 μCi of methyl-^3H thymidine (MP Biomedicals, USA), harvested 18 h later on glass filter paper and counted. Proliferation values were expressed as counts per minute (cpm), and converted to % inhibition with respect to a blank MLR test (identical but without added compound). […]

SMILES	IC50
Nc1nc(N2CCN(C(=O)Cc3ccc(Cl)cc3)CC2)c2nc(CCc3cccs3)sc2n1 [Example 155, 5-amino-2-(2-thiophen-2-ylethyl)-7-(4-[2-(4-chloro-phenyl)acetyl]piperazin-1-yl)thiazolo[5,4-d]pyrimidine]	> 10000 nM
Nc1nc(N2CCN(C(=O)COc3ccc(F)cc3)CC2)c2nc(-c3cccnc3)sc2n1 [Example 272, 1-(4-(5-amino-2-(pyridin-3-yl)thiazolo[5,4-d]pyrimidin-7-yl)piperazin-1-yl)-2-(4-fluorophenoxy)ethanone]	12 nM
Nc1nc(N2CCN(C(=O)COc3ccc(Cl)cc3)CC2)c2nc(CCc3ccccc3)oc2n1 [Example 189, 5-amino-2-(2-phenylethyl)-7-[4-(4-chlorophenoxyacetyl)piperazin-1-yl]oxazolo[5,4-d]pyrimidine]	5530 nM
Nc1nc(N2CCN(C(=O)Nc3ccc(Cl)cc3)CC2)c2nc(-c3cccnc3)sc2n1 [Example 277, 4-(5-amino-2-(pyridin-3-yl)thiazolo[5,4-d]pyrimidin-7-yl)-N-(4-chlorophenyl)piperazine-1-carboxamide]	24 nM
Nc1nc(N2CCN(Cc3ccccc3)CC2)c2nc(-c3ccc(F)cc3)sc2n1 [Example 39, 7-(4-benzylpiperazin-1-yl)-2-(4-fluorophenyl)thiazolo[5,4-d]pyrimidin-5-amine]	> 10000 nM
Nc1nc(N[C@H]2CCN(C(=O)COc3ccc(Cl)cc3)C2)c2nc(CCc3ccc(F)cc3)sc2n1 [Example 147, 5-amino-2-[2-(4-fluorophenyl)ethyl]-7-(1-(4-chlorophenoxyacetyl)pyrrolidin-3-(S)-ylamino)-thiazolo[5,4-d]pyrimidine]	4520 nM
Nc1nc(N2CCN(C(=O)COc3ccccc3)CC2)c2nc(-c3ccc(F)cc3)[nH]c2n1 [Example 401, 1-(4-(2-amino-8-(4-fluorophenyl)-9H-purin-6-yl)piperazin-1-yl)-2-phenoxyethanone]	1090 nM
COc1ccc(OCC(=O)N2CCN(c3nc(N)nc4sc(Cc5ccc(F)cc5)nc34)CC2)cc1 [Example 230, 1-(4-(5-amino-2-(4-fluorobenzyl)thiazolo[5,4-d]pyrimidin-7-yl)piperazin-1-yl)-2-(4-methoxyphenoxy)ethanone]	270 nM
COC(=O)c1ccc(OCC(=O)N2CCN(c3nc(N)nc4sc(CCc5ccc(F)cc5)nc34)CC2)cc1 [Example 225, methyl 4-(2-(4-(5-amino-2-(4-fluorophenethyl)thiazolo[5,4-d]pyrimidin-7-yl)piperazin-1-yl)-2-oxoethoxy)benzoate]	> 10000 nM
COc1ccc(OCC(=O)N2CCN(c3nc(N)nc4sc(CCc5ccc(Br)cc5)nc34)CC2)cc1 [Example 298, 1-(4-(5-amino-2-(4-bromophenethyl)thiazolo[5,4-d]pyrimidin-7-yl)piperazin-1-yl)-2-(4-methoxyphenoxy)ethanone]	1190 nM
Cc1nc2c(N3CCN(C(=O)COc4ccc(Cl)cc4)CC3)nc(N)nc2[nH]1 [Example 400, 1-(4-(2-amino-8-methyl-9H-purin-6-yl)piperazin-1-yl)-2-(4-chlorophenoxy)ethanone]	450 nM
Cc1cccc(OCC(=O)N2CCN(c3nc(N)nc4sc(-c5cccnc5)nc34)CC2)c1 [Example 275, 1-(4-(5-amino-2-(pyridin-3-yl)thiazolo[5,4-d]pyrimidin-7-yl)piperazin-1-yl)-2-(m-tolyloxy)ethanone]	3 nM
COc1ccc(OCC(=O)N2CCN(c3nc(N)nc4sc(-c5ccccc5)nc34)CC2)cc1 [Example 208, 1-(4-(5-amino-2-phenylthiazolo[5,4-d]pyrimidin-7-yl)piperazin-1-yl)-2-(4-methoxyphenoxy)ethanone]	42 nM
Cc1cccc(OCC(=O)N2CCN(c3nc(N)nc4sc(-c5ccccc5)cc34)CC2)c1 [Example 371, 1-(4-(2-amino-6-phenylthieno[2,3-d]pyrimidin-4-yl)piperazin-1-yl)-2-(m-tolyloxy)ethanone]	210 nM
